Experimental data reported in US8378117B2 (priority 2005, dated 2013).

Tests used:
CB1 receptor [1] = biological target: T1, CB1 receptor (Homo sapiens, UniProt P21554); assay: cell-based; details: CB1 Receptor Functional Inverse Agonist EC50, forskolin induced β-galactosidase activity, SK-N-MC cells
T1 construct: expressed in transfected cells
Outline: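 SK-N-MC cells stably co-expressing human CB1 and a CRE-β-galactosidase reporter; forskolin-induced β-gal activity measured after compound treatment, as % of vehicle-treated cells (100%). EC50 by linear regression from concentration series; otherwise % change at a single concentration.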

CB1 receptor [2] = biological target: T1, CB1 receptor; assay: Binding assay for CB1 agonists or inverse agonists (SK-N-MC membranes, [3H]-CP-55,940); details: for IC50: Cannabinoid CB1 Receptor Binding IC50, calculated by linear regression from percent inhibition at various test concentrations; for inhibition at 0.2 µM: read-out: CB1 receptor binding percent inhibition, test concentration 0.2 μM (footnote 2)
Outline: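 Membranes from SK-N-MC cells stably expressing human CB1 incubated with compound and [3H]-CP-55,940 ([…]) for 90 min at 30° C in Tris-HCl pH 7.5, MgCl2, EDTA, fatty-acid-free BSA. Non-specific binding defined with 10 uM WIN 55,212; filtration, scintillation count; IC50 by linear regression.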

CB2 receptor = biological target: T2, CB2 receptor (Homo sapiens, UniProt P34972); assay: Binding assay for CB2 agonists or inverse agonists (SK-N-MC membranes, [3H]-CP-55,940); details: read-out: CB2 receptor binding percent inhibition, test concentration 0.2 μM (footnote 2)
T2 construct: expressed in transfected cells
T2 sequence (P34972 whole entry): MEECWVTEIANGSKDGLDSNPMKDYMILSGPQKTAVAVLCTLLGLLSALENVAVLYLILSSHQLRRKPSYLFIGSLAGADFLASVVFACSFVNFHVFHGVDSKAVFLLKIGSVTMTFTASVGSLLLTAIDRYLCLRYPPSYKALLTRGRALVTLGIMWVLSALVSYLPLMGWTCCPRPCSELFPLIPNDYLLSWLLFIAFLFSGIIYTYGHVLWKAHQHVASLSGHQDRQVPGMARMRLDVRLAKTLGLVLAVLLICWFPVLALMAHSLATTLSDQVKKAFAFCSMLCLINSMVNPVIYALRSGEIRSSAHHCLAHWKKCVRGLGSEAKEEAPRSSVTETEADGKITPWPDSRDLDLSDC
Outline: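 Membranes from SK-N-MC cells stably expressing human CB2 were incubated with radioligand and test compounds for 90 min at 30 °C in Tris-HCl buffer, pH 7.5, with MgCl2, EDTA and fatty-acid-free BSA. Filter-bound radioactivity was counted; IC50 was derived by linear regression of percent inhibition.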

T1 sequence (P21554 whole entry): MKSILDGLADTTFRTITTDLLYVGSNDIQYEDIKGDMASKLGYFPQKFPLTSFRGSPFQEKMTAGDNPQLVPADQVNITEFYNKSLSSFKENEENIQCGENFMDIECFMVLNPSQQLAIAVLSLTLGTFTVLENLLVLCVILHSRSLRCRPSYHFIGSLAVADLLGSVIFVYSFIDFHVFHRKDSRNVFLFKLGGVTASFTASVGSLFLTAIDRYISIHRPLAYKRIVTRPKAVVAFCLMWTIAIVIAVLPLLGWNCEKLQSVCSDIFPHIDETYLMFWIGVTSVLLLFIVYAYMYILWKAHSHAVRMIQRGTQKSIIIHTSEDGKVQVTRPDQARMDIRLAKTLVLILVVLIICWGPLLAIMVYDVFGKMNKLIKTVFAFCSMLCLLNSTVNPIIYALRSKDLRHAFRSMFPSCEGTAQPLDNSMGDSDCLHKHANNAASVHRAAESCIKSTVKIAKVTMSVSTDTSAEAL

SMILES	EC50 (CB1 receptor [1]) [nM]	IC50 (CB1 receptor [2]) [nM]	inhibition at 0.2 µM (CB1 receptor [2]) [%]	inhibition at 0.2 µM (CB2 receptor) [%]
CC[C@@H](NC(=O)c1nn(-c2ccc(Cl)cc2Cl)c2c1CCCC/C2=C\c1ccc(F)cc1)c1ccccc1 [Cpd 202, (8E)-1-(2,4-dichloro-phenyl)-8-(4-fluoro-benzylidene)-1,4,5,6,7,8-hexahydro-cycloheptapyrazole-3-carboxylic acid [(1R)-1-phenyl-propyl]-amide]	9	10	91	9
O=C(N[C@H](CO)c1ccccc1)c1nn(-c2ccc(Cl)cc2Cl)c2c1CCCC/C2=C\c1ccc(F)cc1 [Cpd 204, (8E)-1-(2,4-dichloro-phenyl)-8-(4-fluoro-benzylidene)-1,4,5,6,7,8-hexahydro-cycloheptapyrazole-3-carboxylic acid [(1S)-2-hydroxy-1-phenyl-ethyl]-amide]	3	30	88	34
CC(C)(NC(=O)c1nn(-c2ccc(Cl)cc2Cl)c2c1CCCC/C2=C\c1ccc(F)cc1)c1ccccc1 [Cpd 205, (8E)-1-(2,4-dichloro-phenyl)-8-(4-fluoro-benzylidene)-1,4,5,6,7,8-hexahydro-cycloheptapyrazole-3-carboxylic acid (1-methyl-1-phenyl-ethyl)-amide]	9	20	93	27
O=C(c1nn(-c2ccc(Cl)cc2Cl)c2c1CCCC/C2=C\c1ccc(F)cc1)N1CCCCC1c1ccccn1 (stereo not shown) [Cpd 206, (8E)-[1-(2,4-dichloro-phenyl)-8-(4-fluoro-benzylidene)-1,4,5,6,7,8-hexahydro-cycloheptapyrazol-3-yl]-(3,4,5,6-tetrahydro-2H-[2,2′]bipyridinyl-1-yl)-methanone]	10	80	73	22
O=C(N[C@@H]1CCc2ccccc21)c1nn(-c2ccc(Cl)cc2Cl)c2c1CCCC/C2=C\c1ccc(F)cc1 [Cpd 207, (8E)-1-(2,4-dichloro-phenyl)-8-(4-fluoro-benzylidene)-1,4,5,6,7,8-hexahydro-cycloheptapyrazole-3-carboxylic acid (1R)-indan-1-ylamide]	7	20	90	1
O=C(N[C@H]1c2ccccc2C[C@H]1O)c1nn(-c2ccc(Cl)cc2Cl)c2c1CCCC/C2=C\c1ccc(F)cc1 [Cpd 208, (8E)-1-(2,4-dichloro-phenyl)-8-(4-fluoro-benzylidene)-1,4,5,6,7,8-hexahydro-cycloheptapyrazole-3-carboxylic acid [(1S,2R)-2-hydroxy-indan-1-yl]-amide]	10	70	76	31
O=C(NC1CCCc2ccccc21)c1nn(-c2ccc(Cl)cc2Cl)c2c1CCCC/C2=C\c1ccc(F)cc1 (stereo not shown) [Cpd 209, (8E)-1-(2,4-dichloro-phenyl)-8-(4-fluoro-benzylidene)-1,4,5,6,7,8-hexahydro-cycloheptapyrazole-3-carboxylic acid (1,2,3,4-tetrahydro-naphthalen-1-yl)-amide]	10	30	88	8
COc1ccc(/C=C2\CCCCc3c(C(=O)NCc4ccccn4)nn(-c4ccc(Cl)cc4Cl)c32)cc1 [Cpd 210, (8E)-1-(2,4-dichloro-phenyl)-8-(4-methoxy-benzylidene)-1,4,5,6,7,8-hexahydro-cycloheptapyrazole-3-carboxylic acid (pyridin-2-ylmethyl)-amide]	20	40	76	49
COc1ccc(/C=C2\CCCCc3c(C(=O)NC(C)(C)c4ccccc4)nn(-c4ccc(Cl)cc4Cl)c32)cc1 [Cpd 211, (8E)-1-(2,4-dichloro-phenyl)-8-(4-methoxy-benzylidene)-1,4,5,6,7,8-hexahydro-cycloheptapyrazole-3-carboxylic acid (1-methyl-1-phenyl-ethyl)-amide]	20	7	92	37
COc1ccc(/C=C2\CCCCc3c(C(=O)N[C@H](C)c4ccccc4)nn(-c4ccc(Cl)cc4Cl)c32)cc1 [Cpd 212, (8E)-1-(2,4-dichloro-phenyl)-8-(4-methoxy-benzylidene)-1,4,5,6,7,8-hexahydro-cycloheptapyrazole-3-carboxylic acid [(1R)-1-phenyl-ethyl]-amide]	20	6	94	42
COc1ccc(/C=C2\CCCCc3c(C(=O)N[C@@H](C)c4ccccc4)nn(-c4ccc(Cl)cc4Cl)c32)cc1 [Cpd 213, (8E)-1-(2,4-dichloro-phenyl)-8-(4-methoxy-benzylidene)-1,4,5,6,7,8-hexahydro-cycloheptapyrazole-3-carboxylic acid [(1S)-1-phenyl-ethyl]-amide]	10	60	71	19
COc1ccc(/C=C2\CCCCc3c(C(=O)N[C@H](C)C4CCCCC4)nn(-c4ccc(Cl)cc4Cl)c32)cc1 [Cpd 214, (8E)-1-(2,4-dichloro-phenyl)-8-(4-methoxy-benzylidene)-1,4,5,6,7,8-hexahydro-cycloheptapyrazole-3-carboxylic acid [(1R)-1-cyclohexyl-ethyl]-amide]	30	7	95	43
COc1ccc(/C=C2\CCCCc3c(C(=O)N[C@H](CO)c4ccccc4)nn(-c4ccc(Cl)cc4Cl)c32)cc1 [Cpd 215, (8E)-1-(2,4-dichloro-phenyl)-8-(4-methoxy-benzylidene)-1,4,5,6,7,8-hexahydro-cycloheptapyrazole-3-carboxylic acid [(1S)-2-hydroxy-1-phenyl-ethyl]-amide]	10	10	88	24
COc1ccc(/C=C2\CCCCc3c(C(=O)N[C@@H]4CCc5ccccc54)nn(-c4ccc(Cl)cc4Cl)c32)cc1 [Cpd 216, (8E)-1-(2,4-dichloro-phenyl)-8-(4-methoxy-benzylidene)-1,4,5,6,7,8-hexahydro-cycloheptapyrazole-3-carboxylic acid (1R)-indan-1-ylamide]	50	9	91	33
COc1ccc(/C=C2\CCCCc3c(C(=O)NN4CCCCC4)nn(-c4ccc(Cl)cc4Cl)c32)cc1 [Cpd 217, (8E)-1-(2,4-dichloro-phenyl)-8-(4-methoxy-benzylidene)-1,4,5,6,7,8-hexahydro-cycloheptapyrazole-3-carboxylic acid piperidin-1-ylamide]	20	60	75	52
COc1ccc(/C=C2\CCCCc3c(C(=O)NC(C)c4ccccn4)nn(-c4ccc(Cl)cc4Cl)c32)cc1 (stereo not shown) [Cpd 222, (8E)-1-(2,4-dichloro-phenyl)-8-(4-methoxy-benzylidene)-1,4,5,6,7,8-hexahydro-cycloheptapyrazole-3-carboxylic acid (1-pyridin-2-yl-ethyl)-amide]	30	30	48	41
